Experimental data taken from article PMC11695783 (Frontiers in Pharmacology, 2024).
Where “and” joins values, the source holds several entries; their conditions need not be identical. Identical values can stand only once.

Experiment: Pharmacokinetic studies in mice (intravenous and intramuscular, plasma, HPLC-MS/MS)
Format: in vivo, BALB/c mice
Set-up: AUClast / AUCall / AUCINF_obs / AUCINF_pred / AUCINFobs: concentration or dose not given beside the values; Tlast / Clast / AUMClast / AUMCINF_obs / AUMCINF_pred / Lambda_z / HL_Lambda_z / Cl_obs / Cl_pred / Cl_F_obs / Tlag / Cl_F_pred: unit not given here
Settings: IV; for plasma concentration: individual mice 1-8; for plasma concentration, AV: average of mice
Protocol: Pharmacokinetic experimental procedures of compound 16C were measured according to previous reports with some modifications ([Wang et al., 2022]). In brief, BALB/c mice were divided into two groups of eight mice each; one group was injected intravenously and the other was injected intramuscularly with compound 16C at a dose of 10 mg/kg. The dose was based on previous studies of novel pleuromutilin derivatives ([Jin et al., 2019]; [Wang et al., 2022]). Meanwhile, the dose of tiamulin approved by the European Union for intramuscular administration is 10–20 mg/kg ([EMA, 1999]). The volume of the injection was 0.1 mL/10 g. The compound 16C formulation was a filtered solution in 5% DMSO, 5% Tween-80, and 90% normal saline. Blood was obtained from eight mice via the ocular venous plexus at 0.083, 0.167, 0.25, 0.334, 0.5, 0.75, 1, 1.5, 2, 3, 4, 6, 8, and 12 h following tail intravenous or thigh Intramuscular injection. A glass capillary with a diameter of 0.3 mm was inserted into the outer canthus of the mouse, and 200 μL blood was collected using a 1.5 mL anticoagulant centrifuge tube. The blood was centrifuged at 3,000 rpm for 10 min to obtain plasma. 100 μL of plasma was aspirated for drug concentration detection, and eight parallel samples from different mice were obtained at each time point.
All pharmacokinetic experimental samples and method validation samples were added with 4 times the volume of acetonitrile and shaken for 1 min, centrifuged at high speed at 13,000× g for 10 min, and the supernatants were taken and filtered to detect the drug concentration. Some samples with high concentrations were diluted to the linear range prior to analysis.
The extracted samples were analyzed using a high-performance liquid chromatography-tandem mass spectrometry (HPLC-MS/MS) system (Agilent, Santa Clara, CA, United States) 1200 HPLC and Applied Biosystems (Waltham, MA, United States) API 4000 mass spectrometer). HPLC-MS/MS analysis using a Zorbax Eclipse XDB-C18 (4.6 × 50 mm, 3.5 μm) column (Agilent). The mobile phase A (acetonitrile) and B (water) were applied as a gradient as follows: 0–3 min: 15%–95% A and maintain from 3 min to 5 min at 95% A. 5–5.1 min: 95%–15% A and maintain from 5.1 to 10 min at 15% A. Flow rate: 500 μL/min; column temperature: 30°C and injection volume: 4 μL. The electrospray ionization (ESI) source of the mass spectrometer was operated in […], with the following ion source parameters: ion spray voltage 4,500 V, collision gas 7 psi, ion source gas 1 55 psi, ion source gas 2 40 psi, curtain gas 20 psi, source temperature 600°C. The precursor ion m/z of Compound 16C was 633.3, and the product ions m/z were 272.0 (quantifier) 286.9 and 313.0. Declustering potentials (DP) were 140, 140, and 144 V, respectively; entrance potential (EP) was 10 V; collision energy (CE) was 55, 46, and 15 V, respectively; and collision cell exit potential (CXP) was 14 V.
[…] Pharmacokinetic parameters include time to maximum concentration (Tmax), maximum concentration (Cmax), the area under the plasma concentration–time curve (AUC0-∞), clearance rate (CL), the apparent volume of distribution (Vd), bioavailability (F), elimination half-life (T1/2kel) and absorption half-life (T1/2ka).

With C=C[C@]1(C)C[C@@H](OC(=O)CSc2ccc(NC(=O)Cc3ccc([N+](=O)[O-])cc3)cc2)[C@]2(C)[C@H](C)CC[C@]3(CCC(=O)[C@H]32)[C@@H](C)[C@@H]1O the plasma concentration (0.083h) was 4.18 ng/mL and 5.51 ng/mL and 3.62 ng/mL and 4.5 ng/mL and 6.77 ng/mL and 4.82 ng/mL and 6.27 ng/mL and 4.14 ng/mL, the “plasma concentration, AV” value (0.17h) was 2.954 ng/mL and the plasma concentration (0.17h) was 2.24 ng/mL and 3.08 ng/mL and 2.67 ng/mL and 1.93 ng/mL and 4.06 ng/mL and 3.1 ng/mL and 3.5 ng/mL and 3.05 ng/mL. For the same compound, the “plasma concentration, AV” value (0.25h) was 1.9525 ng/mL, the plasma concentration (0.25h) was 1.53 ng/mL and 1.91 ng/mL and 1.97 ng/mL and 1.44 ng/mL and 2.52 ng/mL and 1.83 ng/mL and 2.17 ng/mL and 2.25 ng/mL and the “plasma concentration, AV” value (0.33h) was 1.413 ng/mL. The plasma concentration (0.33h) was 1.05 ng/mL and 1.59 ng/mL and 1.43 ng/mL and 0.752 ng/mL and 1.83 ng/mL and 1.19 ng/mL and 1.81 ng/mL and 1.65 ng/mL, the “plasma concentration, AV” value (0.5h) was 0.9296 ng/mL and the plasma concentration (0.5h) was 0.563 ng/mL and 0.856 ng/mL and 1.02 ng/mL and 0.564 ng/mL and 1.49 ng/mL and 0.788 ng/mL and 0.986 ng/mL and 1.17 ng/mL. For the same compound, the “plasma concentration, AV” value (0.75h) was 0.4375 ng/mL, the plasma concentration (0.75h) was 0.295 ng/mL and 0.454 ng/mL and 0.34 ng/mL and 0.281 ng/mL and the “plasma concentration, AV” value (1h) was 0.1263 ng/mL. For the same compound, the “plasma concentration, AV” value (1.5h) was 0.0633 ng/mL, the “plasma concentration, AV” value (2h) was 0.03673 ng/mL and the “plasma concentration, AV” value (3h) was 0.01748 ng/mL. The “plasma concentration, AV” value (4h) was 0.01406 ng/mL, the “plasma concentration, AV” value (6h) was 0.005976 ng/mL and the “plasma concentration, AV” value (8h) was 0.004256 ng/mL. For the same compound, the “plasma concentration, AV” value (12h) was 0.002617 ng/mL, the AUCINF_obs (individual mice) was 1731 and 1454.8 and 1871.31 and 1501.72 and 1496.6 and 2594.18 and 1738.12 and 2317.09 and the AUCINF_pred (individual mice) was 1730.96 and 1454.56 and 1871.3 and 1501.69 and 1496.6 and 2594.16 and 1737.96 and 2317.08. The AUC_%Back_Ext_obs (individual mice) was 23.2101% and 33.5458% and 33.5029% and 23.3787% and 40.4621% and 28.4699% and 29.0426% and 30.8151%, the AUC_%Back_Ext_pred (individual mice) was 23.2107% and 33.5513% and 33.5032% and 23.3791% and 40.462% and 28.47% and 29.0454% and 30.8152% and the AUC_%Extrap_obs (individual mice) was 1.0811% and 0.9306% and 0.1046% and 0.8821% and 0.3771% and 0.7545% and 1.237% and 1.2773%. For the same compound, the AUC_%Extrap_pred (individual mice) was 1.0785% and 0.9144% and 0.1039% and 0.8804% and 0.3773% and 0.754% and 1.2276% and 1.277%, the AUCall (individual mice) was 1712.29 and 1441.26 and 1869.35 and 1488.47 and 1490.96 and 2574.6 and 1716.62 and 2287.49 and the AUClast (individual mice) was 1712.29 and 1441.26 and 1869.35 and 1488.47 and 1490.96 and 2574.6 and 1716.62 and 2287.49. The AUMCINF_obs (individual mice) was 945.518 and 756.201 and 591.051 and 764.612 and 715.375 and 1415.53 and 1084.7 and 1445.93, the AUMCINF_pred (individual mice) was 944.931 and 753.432 and 590.916 and 764.278 and 715.413 and 1415.38 and 1082.77 and 1445.86 and the AUMC_%Extrap_obs (individual mice) was 25.4794% and 20.837% and 3.3902% and 21.6397% and 12.7428% and 15.3656% and 22.9491% and 23.7174%. The AUMC_%Extrap_pred (individual mice) was 25.4331% and 20.546% and 3.368% and 21.6055% and 12.7474% and 15.3562% and 22.812% and 23.7133%, the AUMClast (individual mice) was 704.605 and 598.632 and 571.014 and 599.152 and 624.216 and 1198.03 and 835.77 and 1103 and the C0 (individual mice) was 5541.15 and 7579.63 and 9597.07 and 4839.8 and 10091.7 and 11026.6 and 7343.77 and 10935.2. The Cl_obs (individual mice) was 0.0069 and 0.0053 and 0.0067 and 0.0039 and 0.0058 and 4315.76, the Cl_pred (individual mice) was 0.0069 and 0.0053 and 0.0067 and 0.0039 and 0.0058 and 4315.77 and the Clast (individual mice) was 3.84 and 3.72 and 0.875 and 2.95 and 1.36 and 6.29 and 6.01 and 8.25. For the same compound, the Cmax (individual mice) was 4140 and 4180 and 5510 and 3620 and 4500 and 6770 and 4820 and 6270, the HL_Lambda_z (individual mice) was 3.378 and 2.5225 and 1.5506 and 3.1126 and 2.8768 and 2.157 and 2.4798 and 2.4866 and the Tlast (individual mice) was 8 and 12. For the same compound, the Cmax_D (individual mice, dose-normalised, in µg/mL) was 0.0004 and 418 and 551 and 362 and 450 and 677 and 482, the Lambda_z (individual mice, non-compartmental analysis) was 0.2052 and 0.2748 and 0.447 and 0.2227 and 0.2409 and 0.3213 and 0.2795 and 0.2788 and the MRTINF_obs (individual mice, in h) was 0.5462 and 0.5198 and 0.3158 and 0.5092 and 0.478 and 0.5457 and 0.6241 and 0.624. The MRTINF_pred (individual mice, in h) was 0.5459 and 0.518 and 0.3158 and 0.5089 and 0.478 and 0.5456 and 0.623 and 0.624, the MRTlast (individual mice, in h) was 0.4115 and 0.4154 and 0.3055 and 0.4025 and 0.4187 and 0.4653 and 0.4869 and 0.4822 and the Tmax (individual mice, in h) was 0.083.
